Results: paper PMC10411625, “Rationally designed stapled peptides allosterically inhibit PTBP1–RNA-binding” (Chemical Science, 2023)
Positions of bridges follow the written chain, without caps; N, C: chain ends. Non-standard residues stand in square brackets, D forms with d. Residues, ends and D or L forms follow the SMILES beside them. R8 = C=CCCCCCC[C@@](C)(N)C(=O)O; S5 = C=CCCC[C@](C)(N)C(=O)O

Experiments:
[1] = biological target: T1, PTBP1 RRM12 (Homo sapiens, UniProt P26599); test: Competitive fluorescence polarization assay between RRM12 and RNA-2; type: binding; conditions: Fig. 2C, 5 nM FAM-RNA-2, protein at 50-70 % probe binding, FP buffer pH 8.0, 20 °C, 30 min, n.b. given for inactive peptides; for Ki: read-out: Ki, competitive FP assay between RRM12 and RNA-2
T1 construct: (P57-V265); MBP (from pMAL vector); His tag; made in house; host or cells: E. coli BL21 DE3 RIL
T1 sequence (P26599 57-265): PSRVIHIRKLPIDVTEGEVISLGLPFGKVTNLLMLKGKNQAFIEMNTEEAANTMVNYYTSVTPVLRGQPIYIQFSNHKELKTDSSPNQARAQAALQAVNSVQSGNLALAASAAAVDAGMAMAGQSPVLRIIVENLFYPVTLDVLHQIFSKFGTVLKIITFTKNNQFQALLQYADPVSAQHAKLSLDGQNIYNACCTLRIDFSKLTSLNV
From the text: (§1) For the initial design we used the i, i + 4 strategy where two (S)-pentenyl alanines (S5) were introduced in positions with three other amino acids in between. We picked three different amino acid pairs to replace with the S5 amino acids based on their orientation as observed in the NMR structures (P-2, P-3 and P-4, Fig. 2B and C).[25] To prevent the staple from disturbing the interaction between the ligand and the protein we chose positions facing away from the binding site forming the pairs Ala145/Ala149, Gln148/Gln152, and Ala149/Ala153. The three peptides were synthesized on Rink amide resin and the linear peptides were treated with a Grubbs catalyst to connect the S5 residues. To avoid a mixture of E/Z-diastereomers we reduced the alkene in the linker of the staple using a solution phase hydrogenation protocol.[43] The linear equivalent P-1 was synthesized for comparison but had to be extended on the C-terminus with an arginine residue to improve its solubility. The C-terminus is away from the binding surface and this modification was therefore not expected to have an impact on the binding affinity. The peptides were tested in a competitive fluorescence polarization assay using the RRM12 construct and RNA-2 (Fig. 2C and S2 ^†). […] As the staple is expected to stabilize the α-helical conformation we used circular dichroism (CD) spectroscopy to evaluate the helicity of the peptides. […] It is possible that although P-4 was more helical than P-3, the replacement of Gln148 with the hydrophobic linker disturbed the interaction since the side chain amide potentially interacts with the RRM1 surface. […]
size exclusion chromatography (Superdex 75 16/60 or 26/60) with SEC buffer (50 mM Tris, 200 mM NaCl). Protein homogeneity was assessed by the size exclusion chromatogram and purity was checked by SDS-PAGE analysis to be >= 90%.
The gene encoding for SRSF1-RRM12 (1-195) was subcloned into pOPIN-His expression vector and expressed in E. coli BL21 (DE3). A pre-culture of transformed bacteria was made followed by expression in LB-Medium (100 µg/ml Ampicillin, 1 mM IPTG, 18 °C, 160 rpm overnight) after growing the culture at 37 °C, 160 rpm to an OD600 of 0.6. The harvested cells (5000 x g, 4 °C, 15 min) were resuspended in Buffer ASRSF1 (50 mM Na2HPO4 pH 8.0, 300 mM KCl, 50 mM L-Arg, 50 mM L-Gly, 1.5 mM MgCl2) supplemented with 1 mM PMSF followed by lysis through sonification. The protein was purified using a HisTrap HP 5 ml column (GE-Healthcare) using a gradient of Buffer BSRSF1 (50 mM Na2HPO4 pH 8.0, 300 mM KCl, 50 mM L-Arg, 50 mM L-Gly, 1.5 mM MgCl2, 500 mM Imidazole) followed by dialysis into wash buffer (50 mM Na2HPO4 pH 8.0, 300 mM KCl, 50 mM L-Arg, 50 mM L-Gly, 1.5 mM MgCl2, 40 mM Imidazole) and a second run of the affinity column. The protein containing fractions were afterwards dialyzed into wash buffer with tag-cleavage using His-tagged 3C protease. The cleaved construct was subsequently used for a third affinity column run collecting the unbound fraction which was dialyzed into storage buffer (20 mM Na2HPO4 pH 8.0, 150 mM KCl, 50 mM L-Arg, 50 mM L-Gly, 1.5 mM MgCl2, 0.2 mM EDTA, 1 mM TCEP).
Purification of hnRNP A2/B1
The MBP-tagged hnRNP A2/B1 construct (1-251) was expressed from a pOPIN-His-MBP vector in E. coli BL21 (DE3) RIPL cells. A pre-culture in TB (0.01% lactose, 2mM MgSO4, 100 µg/ml ampicillin, 50 µg/ml chloramphenicol) was used to inoculate the expression culture with a starting OD600 of 0.05 at 37 °C. Expression was autoinduced at 37 °C for 4 h followed by expression over night at 25 °C. Harvested cells (5000 x g, 15 min, 4 °C) were resuspended in Buffer AhnRNPA2/B1 (50 mM HEPES pH 8.0, 300 mM NACl, 20 mM Imidazole, 1 mM TCEP) supplemented with 1 mM PMSF) and lysed with a microfluidizer.
Immobilized metal affinity chromatography was performed using a HisTrap FF crude 5 ml column. The loaded protein was washed with wash buffer (50 mM HEPES pH 8.0, 300 mM NaCl, 30 mM Imidazole, […]

[2] = Helicity by circular dichroism spectroscopy; type: physicochemical; conditions: 50 µM peptide, 20 mM sodium phosphate pH 8.0, 10 mM NaF, 20 °C, triplicates, JASCO multivariate secondary structure analysis
From the text: as §1
performed in FP bufferPTBP1. […]
serially diluted in the same buffer. […]
a final concentration of 10 nM probe. […]
the settings mentioned previously.
Fluorescence polarization assay with SRSF1
Fluorescence polarization was
Fluorescence polarization assay with hnRNPA2/B1
For the competitive assay 10 nM
Microscale thermophoresis […]
afterwards serially diluted into FP buffer.
The data was evaluated at […]
experiments were performed in duplicates.
Circular Dichroism Spectroscopy […]

| Structure (SMILES) | Ki [1] | Helicity by CD spectroscopy [2] | Ki, competitive FP assay between RRM12 and RNA-2 [1] |
| --- | --- | --- | --- |
| CC(=O)N[C@@H](CC(N)=O)C(=O)N[C@@H](CCC(N)=O)C(=O)N[C@@H](C)C(=O)N[C@@H](CCCNC(=N)N)C(=O)N[C@@H](C)C(=O)N[C@@H](CCC(N)=O)C(=O)N[C@@]1(C)CCCCCCCC[C@@](C)(C(=O)N[C@H](C(=O)N[C@@H](CC(N)=O)C(N)=O)C(C)C)NC(=O)[C@H](CCC(N)=O)NC(=O)[C@H](CC(C)C)NC(=O)[C@H](C)NC1=O [Peptide P-3] | 156 µM | 57.8% | – |
| CC(=O)N[C@@H](CC(N)=O)C(=O)N[C@@H](CCC(N)=O)C(=O)N[C@@H](C)C(=O)N[C@@H](CCCNC(=N)N)C(=O)N[C@@H](C)C(=O)N[C@@]1(C)CCCCCCCC[C@@](C)(C(=O)N[C@@H](C)C(=O)N[C@H](C(=O)N[C@@H](CC(N)=O)C(N)=O)C(C)C)NC(=O)[C@H](CC(C)C)NC(=O)[C@H](C)NC(=O)[C@H](C)NC1=O [Peptide P-4] | 275 µM | 77.3% | – |
| CC(=O)N[C@@H](CC(N)=O)C(=O)N[C@@H](CCC(N)=O)C(=O)N[C@@]1(C)CCCC=CCCCCCC[C@](C)(C(=O)N[C@@H](C)C(=O)N[C@H](C(=O)N[C@@H](CC(N)=O)C(N)=O)C(C)C)NC(=O)[C@H](CC(C)C)NC(=O)[C@H](C)NC(=O)[C@H](C)NC(=O)[C@H](CCC(N)=O)NC(=O)[C@H](C)NC(=O)[C@H](CCCNC(=N)N)NC1=O [Peptide P-5] (Ac-NQ[S5]RAQAAL[R8]AVN-NH2; staple 3-10) | 24.9 µM | – | – |
| CC(=O)N[C@@H](CC(N)=O)C(=O)N[C@@H](CCC(N)=O)C(=O)N[C@@]1(C)CCCC=CCCCC2(CCCC=CCCC[C@](C)(C(=O)N[C@H](C(=O)N[C@@H](CC(=O)O)C(N)=O)C(C)C)NC(=O)[C@H](CCC(N)=O)NC(=O)[C@H](CC(C)C)NC(=O)[C@H](C)NC2=O)NC(=O)[C@H](CCC(N)=O)NC(=O)[C@H](C)NC(=O)[C@H](CCCNC(=N)N)NC1=O (stereo partly drawn) [Peptide P-7] | – | – | n.b. |
| CC(=O)N[C@@H](CC(N)=O)C(=O)N[C@@H](CCC(N)=O)C(=O)N[C@@]1(C)CCCC=CCCCC2(CCCC=CCCC[C@](C)(C(=O)N[C@H](C(=O)N[C@@H](CC(N)=O)C(N)=O)C(C)C)NC(=O)[C@H](CCC(N)=O)NC(=O)[C@H](CC(C)C)NC(=O)[C@H](C)NC2=O)NC(=O)[C@H](CCC(N)=O)NC(=O)[C@H](C)NC(=O)[C@H](CCNC(=N)N)NC1=O (stereo partly drawn) [Peptide P-8] | – | – | n.b. |
| CC(=O)N[C@@H](CC(N)=O)C(=O)N[C@@H](CCC(N)=O)C(=O)N[C@@]1(C)CCCC=CCCCC2(CCCC=CCCC[C@](C)(C(=O)N[C@H](C(=O)N[C@@H](CC(N)=O)C(N)=O)C(C)C)NC(=O)[C@H](CCC(N)=O)NC(=O)[C@H](CC(N)=O)NC(=O)[C@H](C)NC2=O)NC(=O)[C@H](CCC(N)=O)NC(=O)[C@H](C)NC(=O)[C@H](CCCNC(=N)N)NC1=O (stereo partly drawn) [Peptide P-9] | – | – | n.b. |
| CC(=O)N[C@H](C(=O)N[C@@H](CCC(N)=O)C(=O)N[C@@]1(C)CCCC=CCCCC2(CCCC=CCCC[C@](C)(C(=O)N[C@H](C(=O)N[C@@H](CC(N)=O)C(N)=O)C(C)C)NC(=O)[C@H](CCC(N)=O)NC(=O)[C@H](CC(C)C)NC(=O)[C@H](C)NC2=O)NC(=O)[C@H](CCC(N)=O)NC(=O)[C@H](C)NC(=O)[C@H](CCCNC(=N)N)NC1=O)C(C)C (stereo partly drawn) [Peptide P-10] | 22.4 ± 4.5 µM | – | – |
